Each compound was assayed against T1, thrombin (Bos taurus, UniProt P00735) (assay: fibrinogen coagulation time). Conditions: bovine fibrinogen, thrombin 5 units/ml, borate saline buffer pH 7.4, 25° C; control coagulation time 50-55 seconds.
T1 construct: purchased Mochida Pharmaceutical Co., Ltd
Assay type: biochemical
Method: The measurement of the fibrinogen coagulation time was conducted as follows:
Immediately after mixing, the reaction mixture was transferred from the ice bath to a bath maintained at 25° C. Coagulation times were taken as the period between the time of transference to the 25° C bath and the time of the first appearance of fibrin threads.
The term "concentration required to prolong the coagulation time by a factor of two" is the concentration of an active ingredient required to prolong the normal coagulation time 50-55 seconds to 100-110 seconds.
In the case of `CCCCCN(C(=O)[C@H](CCCNC(=N)N)NS(=O)(=O)c1ccc2cc(OC)c(OC)cc2c1)[C@@H](C)C(=O)O` [Sample 4, N^2-(6,7-dimethoxy-2-naphthylsulfonyl)-L-arginyl-N-pentylalanine], the “Concentration required to prolong the coagulation time by a factor of two” value (“Concentration required” below) is reported as 2.0 µM. With `COc1cc2ccc(S(=O)(=O)N[C@@H](CCCNC(=N)N)C(=O)N(Cc3ccccc3)[C@@H](C)C(=O)O)cc2cc1OC` [Sample 6, N^2-(6,7-dimethoxy-2-naphthylsulfonyl)-L-arginyl-N-benzylalanine] the “Concentration required” value was 2.5 µM. `COc1cc2ccc(S(=O)(=O)N[C@@H](CCCNC(=N)N)C(=O)N(CCc3ccccc3)[C@@H](C)C(=O)O)cc2cc1OC` [Sample 8, N^2-(6,7-dimethoxy-2-naphthylsulfonyl)-L-arginyl-N-phenethylalanine] was tested, and the “Concentration required” value was 1.5 µM. In the case of `COc1ccc2cc(S(=O)(=O)N[C@@H](CCCNC(=N)N)C(=O)N(CC3CCCCC3)[C@@H](C)C(=O)O)cc(OC)c2c1` [Sample 12, N^2-(4,6-dimethoxy-2-naphthylsulfonyl)-L-arginyl-N-cyclohexylmethylalanine], the “Concentration required” value is reported as 4.5 µM. In the case of `COCCN(C(=O)[C@H](CCCNC(=N)N)NS(=O)(=O)c1ccc2cc(OC)c(OC)cc2c1)[C@@H](C)C(=O)O` [Sample 15, N^2-(6,7-dimethoxy-2-naphthylsulfonyl)-L-arginyl-N-(2-methoxyethyl)alanine], the “Concentration required” value is reported as 5 µM. For `COc1cc2ccc(S(=O)(=O)N[C@@H](CCCNC(=N)N)C(=O)N(C)[C@@H](Cc3ccccc3)C(=O)O)cc2cc1OC` [Sample 18, N^2-(6,7-dimethoxy-2-naphthylsulfonyl)-L-arginyl-N-methylphenylalanine], the “Concentration required” value was 2 µM. With `COc1ccc2ccc(S(=O)(=O)N[C@@H](CCCNC(=N)N)C(=O)N(C)[C@@H](Cc3ccccc3)C(=O)O)cc2c1` [Sample 20, N^2-(7-methoxy-2-naphthylsulfonyl)-L-arginyl-N-methylphenylalanine] the “Concentration required” value was 2.5 µM. With `CCC[C@H](NC(=O)[C@H](CCCNC(=N)N)NS(=O)(=O)c1ccc2cc(OC)c(OC)cc2c1)C(=O)O` [Sample 21, N^2-(6,7-dimethoxy-2-naphthylsulfonyl)-L-arginylnorvaline] the “Concentration required” value was 15 µM.

These compounds were tested on mice (assay: acute toxicity (LD50), intraperitoneal administration in mice). Conditions: mice (male, 20 g).
Assay type: in vivo
From the text: Representative LD50 values, for example, for N^2 -(6,7-dimethoxy-2-naphthylsulfonyl)-L-arginyl-N-butylalanine and N^2 -(4,6-dimethoxy-2-naphthylsulfonyl)-L-arginyl-N-cyclohexylmethylalanine are above 1,500 milligrams per kilogram each.
For `CCCCNC(=O)[C@H](CCCNC(=N)N)NS(=O)(=O)c1cccc2c(N(C)C)cccc12` [N^2 -dansyl-N-butyl-L-argininamide, reference compound], the “acute toxicity LD50” value was 75 milligrams per kilogram. For `CCCCN(C)C(=O)[C@H](CCCNC(=N)N)NS(=O)(=O)c1cccc2c(N(C)C)cccc12` [N^2 -dansyl-N-methyl-N-butyl-L-argininamide, reference compound], the “acute toxicity LD50” value was 70 milligrams per kilogram. For `CCCCN(C(=O)[C@H](CCCNC(=N)N)NS(=O)(=O)c1ccc2cc(OC)c(OC)cc2c1)[C@@H](C)C(=O)O` [Sample 2, N^2-(6,7-dimethoxy-2-naphthylsulfonyl)-L-arginyl-N-butylalanine], the “acute toxicity LD50” value was “above 1,500 milligrams per kilogram”. For `COc1ccc2cc(S(=O)(=O)N[C@@H](CCCNC(=N)N)C(=O)N(CC3CCCCC3)[C@@H](C)C(=O)O)cc(OC)c2c1` [Sample 12, N^2-(4,6-dimethoxy-2-naphthylsulfonyl)-L-arginyl-N-cyclohexylmethylalanine], the “acute toxicity LD50” value was “above 1,500 milligrams per kilogram”.
